Test results: publication PMC12766724, “Synthesis, Anthelmintic Activity, and Mechanism of Action of 5‑Aryl‑1H‑indoles” (Journal of Agricultural and Food Chemistry, 2025)

Key:
Type in all cases: in vivo, Caenorhabditis elegans
[1] = tested on: C. elegans MCII mutant RP2700; assay: Acute motility of young adults on WMicrotracker ONE; conditions: 50 μM; 24 h
Experimental: (§1) The effect of compounds on C. elegans N2 and SDH mutant strains was measured in a similar manner. Briefly, for evaluation of the acute effect of the compounds, age-synchronized young adults of each strain, kept in S complete medium supplemented with E. coli OP50 (3 mg/mL, fresh weight), were transferred onto microtiter plates (96-well, U bottom), and their initial motility was measured for 30 min. […] Afterward, the compounds were washed away, and worms, supplemented with fresh liquid media and food, were distributed onto 96-well plates and allowed to recover. Their activity was measured using WMicrotracker ONE at the indicated time points.
(§2) To experimentally support this promising initial finding, we tested the effect of i-19 against several C. elegans MCII mutant strains. These nematodes carry point mutations that result in amino acid changes in regions of subunits SDHC and SDHD that contribute to the formation of the ubiquinone-binding pocket, thereby influencing its shape and the ability of inhibitors to interact with the protein. […] The compounds were tested in multiple setups. At first, young adults were exposed to higher doses (100, 50, and 10 μM) of the compounds for up to 48 h, and changes in motility were evaluated using WMicrotracker. For both compounds, we observed a less pronounced decrease in movement rates of MCII mutants compared to wild-type worms, in both a dose- and time-dependent manner (Figure ).

[2] = tested on: C. elegans MCII mutant RP2702; assay: as above; conditions: 50 μM; 24 h
Experimental: as §1, §2

C. elegans wild-type N2 = assay: as above; conditions: 50 μM; 24 h
Experimental: as §1, §2

[3] = tested on: C. elegans MCII mutant RP2699; assay: as above; conditions: 50 μM; 24 h
Experimental: as §1, §2

C. elegans N2 = assay: Scoring of developmental rates, L1 exposed 5 days; parameters: key: 1 = dead/arrested at L1 … 5 = healthy, normal reproduction
Text: (§3) Dead or mostly immobile worms, arrested at the L1 stage, received a score of 1. Populations with severely delayed development were scored as 2. More developmentally advanced, but still obviously delayed worms were given the score of 3. Adult worms that produce a noticeably lower number of progeny received a score of 4. Healthy worms that reproduce normally (i.e., hundreds of eggs and larvae are present) were scored as 5 (see Figure C for representative images). In a typical, correctly prepared experiment, vehicle-treated populations should receive a score of 5, while worms treated with ivermectin (positive control) should receive a score of 1. […]

[4] = tested on: C. elegans wild-type and MCII mutants; assay: Recovery of pretreated worms on WMicrotracker ONE; conditions: 5 or 10 μM for 72 h, then wash-out and recovery
Experimental: Briefly, for evaluation of the acute effect of the compounds, age-synchronized young adults of each strain, kept in S complete medium supplemented with E. coli OP50 (3 mg/mL, fresh weight), were transferred onto microtiter plates (96-well, U bottom), and their initial motility was measured for 30 min. […] Afterward, the compounds were washed away, and worms, supplemented with fresh liquid media and food, were distributed onto 96-well plates and allowed to recover. Their activity was measured using WMicrotracker ONE at the indicated time points.
C. elegans L1 larvae were exposed to 5 or 10 μM of the compounds for 72 h, after which the compounds were washed away, and the recovery of the nematodes was evaluated using WMicrotracker.

[5] = tested on: C. elegans complex II mutant RP2702; assay: Scoring of developmental rates, L1 exposed 5 days
Text: as §3

[6] = tested on: C. elegans complex II mutant RP2699; assay: Scoring of developmental rates, L1 exposed 5 days
Text: as §3

[7] = tested on: C. elegans complex II mutant RP2700; assay: Scoring of developmental rates, L1 exposed 5 days
Text: as §3

## Clc1ccc(-c2ccc3[nH]ccc3c2)cc1 [i-19]
[1]
  decrease of mean activity counts: 32%
[2]
  decrease of mean activity counts: 70%
C. elegans wild-type N2
  decrease of mean activity counts: 89%
[3]
  decrease of mean activity counts: 46%
C. elegans N2; 1.336 µM
  mean score (1-5): 5
C. elegans N2; 1.782 µM
  mean score (1-5): 4.222
C. elegans N2; 2.376 µM
  mean score (1-5): 4.889
C. elegans N2; 3.168 µM
  mean score (1-5): 4.889
C. elegans N2; 4.224 µM
  mean score (1-5): 4.667
C. elegans N2; 5.631 µM
  mean score (1-5): 4.444
C. elegans N2; 7.509 µM
  mean score (1-5): 4.667
C. elegans N2; 10.011 µM
  mean score (1-5): 4.444
C. elegans N2; 13.348 µM
  mean score (1-5): 4
C. elegans N2; 17.798 µM
  mean score (1-5): 2.556
C. elegans N2; 23.731 µM
  mean score (1-5): 1.333
C. elegans N2; 31.641 µM
  mean score (1-5): 1
C. elegans N2; 42.188 µM
  mean score (1-5): 1
C. elegans N2; 56.25 µM
  mean score (1-5): 1
C. elegans N2; 75 µM
  mean score (1-5): 1
C. elegans N2; 100 µM
  mean score (1-5): 1
[4]
  resistance of MCII mutants compared to wild-type: increased resistance of the MCII mutants
[5]; 1.336 µM
  mean score (1-5): 5
[5]; 1.782 µM
  mean score (1-5): 5
[5]; 2.376 µM
  mean score (1-5): 5
[5]; 3.168 µM
  mean score (1-5): 5
[5]; 4.224 µM
  mean score (1-5): 4.889
[5]; 5.631 µM
  mean score (1-5): 4.889
[5]; 7.509 µM
  mean score (1-5): 5
[5]; 10.011 µM
  mean score (1-5): 4.444
[5]; 13.348 µM
  mean score (1-5): 4.889
[5]; 17.798 µM
  mean score (1-5): 4.667
[5]; 23.731 µM
  mean score (1-5): 3.889
[5]; 31.641 µM
  mean score (1-5): 1.111
[5]; 42.188 µM
  mean score (1-5): 1
[5]; 56.25 µM
  mean score (1-5): 1
[5]; 75 µM
  mean score (1-5): 1
[5]; 100 µM
  mean score (1-5): 1
[6]; 1.336 µM
  mean score (1-5): 4.667
[6]; 1.782 µM
  mean score (1-5): 4.667
[6]; 2.376 µM
  mean score (1-5): 4.556
[6]; 3.168 µM
  mean score (1-5): 4.444
[6]; 4.224 µM
  mean score (1-5): 4.556
[6]; 5.631 µM
  mean score (1-5): 4.333
[6]; 7.509 µM
  mean score (1-5): 4.444
[6]; 10.011 µM
  mean score (1-5): 4.333
[6]; 13.348 µM
  mean score (1-5): 4.111
[6]; 17.798 µM
  mean score (1-5): 3.111
[6]; 23.731 µM
  mean score (1-5): 2.778
[6]; 31.641 µM
  mean score (1-5): 2.111
[6]; 42.188 µM
  mean score (1-5): 1
[6]; 56.25 µM
  mean score (1-5): 1
[6]; 75 µM
  mean score (1-5): 1
[6]; 100 µM
  mean score (1-5): 1
[7]; 1.336 µM
  mean score (1-5): 4.778
[7]; 1.782 µM
  mean score (1-5): 4.778
[7]; 2.376 µM
  mean score (1-5): 4.667
[7]; 3.168 µM
  mean score (1-5): 4.889
[7]; 4.224 µM
  mean score (1-5): 4.778
[7]; 5.631 µM
  mean score (1-5): 4.778
[7]; 7.509 µM
  mean score (1-5): 4.667
[7]; 10.011 µM
  mean score (1-5): 4.667
[7]; 13.348 µM
  mean score (1-5): 4.333
[7]; 17.798 µM
  mean score (1-5): 3.667
[7]; 23.731 µM
  mean score (1-5): 3.444
[7]; 31.641 µM
  mean score (1-5): 1.111
[7]; 42.188 µM
  mean score (1-5): 1
[7]; 56.25 µM
  mean score (1-5): 1
[7]; 75 µM
  mean score (1-5): 1
[7]; 100 µM
  mean score (1-5): 1
